Target: T1, recombinant human baculovirus-expressed GST-tagged FASN (Homo sapiens, UniProt P49327)
T1 construct: GST; host or cells: baculovirus expression system (insect cells implied)
Test: FASN enzyme activity assay: fluorescence-based detection of CoA with CPM
Type: biochemical
Conditions: 5 nM FASN, 150 μM NADPH, 10 μM acetyl-CoA, 25 μM malonyl-CoA, 90 minutes incubation
In short: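 GST-tagged human FASN (5 nM, baculovirus-expressed) in 50 mM HEPES pH 7.5 with 150 μM NADPH, 10 μM acetyl-CoA and 25 μM malonyl-CoA, 0.5% DMSO, started with malonyl-CoA and run 90 min. CoA was detected with CPM (30 min; ex 390/em 530 nm). IC50 came from sigmoidal variable-slope fits of % inhibition.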

T1 sequence (P49327 whole entry): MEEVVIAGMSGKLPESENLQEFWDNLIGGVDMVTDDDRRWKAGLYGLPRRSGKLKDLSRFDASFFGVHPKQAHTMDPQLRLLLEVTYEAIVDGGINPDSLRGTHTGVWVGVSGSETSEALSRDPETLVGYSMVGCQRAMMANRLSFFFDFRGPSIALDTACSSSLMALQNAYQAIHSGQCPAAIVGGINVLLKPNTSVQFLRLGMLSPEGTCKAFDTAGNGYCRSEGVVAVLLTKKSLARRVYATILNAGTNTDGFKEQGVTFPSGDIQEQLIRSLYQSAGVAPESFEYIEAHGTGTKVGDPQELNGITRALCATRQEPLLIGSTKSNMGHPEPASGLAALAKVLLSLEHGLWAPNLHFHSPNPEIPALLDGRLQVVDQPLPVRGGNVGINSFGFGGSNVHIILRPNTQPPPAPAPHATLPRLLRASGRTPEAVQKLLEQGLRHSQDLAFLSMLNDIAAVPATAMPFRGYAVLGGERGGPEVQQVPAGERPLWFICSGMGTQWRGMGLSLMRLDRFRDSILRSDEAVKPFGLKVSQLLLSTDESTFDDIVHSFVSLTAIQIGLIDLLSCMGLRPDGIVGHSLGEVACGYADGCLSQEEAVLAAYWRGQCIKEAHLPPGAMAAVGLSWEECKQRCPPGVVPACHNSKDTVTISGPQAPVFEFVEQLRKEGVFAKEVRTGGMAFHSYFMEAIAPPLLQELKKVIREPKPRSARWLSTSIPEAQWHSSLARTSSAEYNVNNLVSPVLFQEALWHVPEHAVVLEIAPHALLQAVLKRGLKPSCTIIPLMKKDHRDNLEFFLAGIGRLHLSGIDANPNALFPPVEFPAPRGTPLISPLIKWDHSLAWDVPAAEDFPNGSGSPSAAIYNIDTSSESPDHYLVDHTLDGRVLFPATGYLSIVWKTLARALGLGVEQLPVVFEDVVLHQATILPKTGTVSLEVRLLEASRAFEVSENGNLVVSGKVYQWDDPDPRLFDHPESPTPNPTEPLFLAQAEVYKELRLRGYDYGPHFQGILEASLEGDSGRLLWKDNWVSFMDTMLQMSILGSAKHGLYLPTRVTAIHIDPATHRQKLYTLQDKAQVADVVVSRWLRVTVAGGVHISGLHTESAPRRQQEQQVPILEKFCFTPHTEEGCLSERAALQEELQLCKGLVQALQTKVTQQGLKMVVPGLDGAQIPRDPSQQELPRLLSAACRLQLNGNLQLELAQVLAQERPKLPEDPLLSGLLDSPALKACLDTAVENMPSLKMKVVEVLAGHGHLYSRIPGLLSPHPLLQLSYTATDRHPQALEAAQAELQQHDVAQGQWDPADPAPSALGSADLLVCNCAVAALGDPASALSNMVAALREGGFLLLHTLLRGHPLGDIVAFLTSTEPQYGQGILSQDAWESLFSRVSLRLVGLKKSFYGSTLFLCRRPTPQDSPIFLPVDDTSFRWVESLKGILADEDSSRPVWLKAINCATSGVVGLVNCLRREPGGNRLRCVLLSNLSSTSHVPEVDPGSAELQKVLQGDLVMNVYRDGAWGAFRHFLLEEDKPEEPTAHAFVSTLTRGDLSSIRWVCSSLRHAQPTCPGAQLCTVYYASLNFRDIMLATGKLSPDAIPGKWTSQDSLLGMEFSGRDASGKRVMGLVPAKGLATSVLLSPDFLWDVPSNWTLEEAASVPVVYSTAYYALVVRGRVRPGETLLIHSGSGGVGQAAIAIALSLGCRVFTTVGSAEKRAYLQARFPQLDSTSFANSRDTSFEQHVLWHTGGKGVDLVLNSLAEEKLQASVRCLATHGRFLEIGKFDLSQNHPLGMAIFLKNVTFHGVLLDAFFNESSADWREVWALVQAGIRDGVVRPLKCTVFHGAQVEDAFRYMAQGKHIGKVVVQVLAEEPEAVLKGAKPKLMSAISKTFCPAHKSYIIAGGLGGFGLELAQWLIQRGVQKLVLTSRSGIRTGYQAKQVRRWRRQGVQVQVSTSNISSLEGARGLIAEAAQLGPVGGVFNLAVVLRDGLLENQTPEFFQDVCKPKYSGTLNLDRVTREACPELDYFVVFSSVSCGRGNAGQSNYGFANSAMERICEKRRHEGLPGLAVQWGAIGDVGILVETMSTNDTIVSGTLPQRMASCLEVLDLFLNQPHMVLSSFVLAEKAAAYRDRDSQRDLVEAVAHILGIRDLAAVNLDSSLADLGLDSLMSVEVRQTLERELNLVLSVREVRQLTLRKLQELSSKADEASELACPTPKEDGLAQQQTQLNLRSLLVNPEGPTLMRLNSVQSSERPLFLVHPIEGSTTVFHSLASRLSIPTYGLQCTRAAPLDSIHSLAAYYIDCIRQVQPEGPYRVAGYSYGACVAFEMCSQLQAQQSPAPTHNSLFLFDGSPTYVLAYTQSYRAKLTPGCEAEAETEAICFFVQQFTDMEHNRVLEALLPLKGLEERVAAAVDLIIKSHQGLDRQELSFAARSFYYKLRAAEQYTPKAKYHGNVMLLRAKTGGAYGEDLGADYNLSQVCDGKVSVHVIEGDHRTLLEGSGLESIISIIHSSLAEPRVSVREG

Row | IC50 | SMILES
1 | 1 to 10 µM | CC(C)C(=O)N1CCC(C2(c3ccc(-c4ccc5ncccc5c4)cc3)OCCO2)CC1 [Example 102, 2-Methyl-1-{4-[2-(4-quinolin-6-yl-phenyl)-1,3-dioxolan-2-yl]-piperidin-1-yl}-propan-1-one]
2 | 1 to 10 µM | CN(C)C(=O)N1CCC(C2(c3ccc(-c4ccc5ncccc5c4)cc3)OCCO2)CC1 [Example 103, 4-[2-(4-Quinolin-6-yl-phenyl)-1,3-dioxolan-2-yl]-piperidine-1-carboxylic acid dimethylamide]
3 | 1 to 10 µM | CCC(=O)N1CCC(C2(c3ccc(-c4ccc5ncccc5c4)cc3)OCCO2)CC1 [Example 104, 1-{4-[2-(4-Quinolin-6-yl-phenyl)-1,3-dioxolan-2-yl]-piperidin-1-yl}-propan-1-one]
4 | 1 to 10 µM | CCCC(=O)N1CCC(C2(c3ccc(-c4ccc5ncccc5c4)cc3)OCCO2)CC1 [Example 105, 1-{4-[2-(4-Quinolin-6-yl-phenyl)-1,3-dioxolan-2-yl]-piperidin-1-yl}-butan-1-one]
5 | 1 to 10 µM | CC(=O)N1CCC(C2(c3ccc(-c4ccc5ncccc5c4)cc3)OCCO2)CC1 [Example 106, 1-{4-[2-(4-Quinolin-6-yl-phenyl)-1,3-dioxolan-2-yl]-piperidin-1-yl}-ethanone]
6 | 1 to 10 µM | O=C(NC1CCCC1)N1CCC(C2(c3ccc(-c4ccc5ncccc5c4)cc3)OCCO2)CC1 [Example 107, 4-[2-(4-Quinolin-6-yl-phenyl)-1,3-dioxolan-2-yl]-piperidine-1-carboxylic Acid Cyclopentylamide]
7 | 1 to 10 µM | c1cnc2ccc(-c3ccc(C4(C5CCN(C6CCOCC6)CC5)OCCO4)cc3)cc2c1 [Example 108, 6-(4-{2-[1-(Tetrahydropyran-4-yl)-piperidin-4-yl]-1,3-dioxolan-2-yl}-phenyl)-quinoline]
8 | 1 to 10 µM | CC(C)C(=O)N1CCC(C(=O)c2ccc(-c3ccc4ncccc4c3)cc2)CC1 [Example 109, 2-Methyl-1-[4-(4-quinolin-6-yl-benzoyl)-piperidin-1-yl]-propan-1-one]
9 | 1 to 10 µM | CC(C)C(=O)N1CCC(C(O)c2ccc(-c3ccc4ncccc4c3)cc2)CC1 (stereo not drawn) [Example 110, 1-{4-[Hydroxy-(4-quinolin-6-yl-phenyl)-methyl]-piperidin-1-yl}-2-methyl-propan-1-one]
10 | 1 to 10 µM | CC(C)C(=O)N1CCC(C2(c3ccc(-c4ccc5cccnc5c4)cc3)OCCO2)CC1 [Example 111, 2-Methyl-1-{4-[2-(4-quinolin-7-yl-phenyl)-1,3-dioxolan-2-yl]-piperidin-1-yl}-propan-1-one]
11 | 1 to 10 µM | O=C(C1CC1)N1CCC(C2(c3ccc(-c4ccc5cccnc5c4)cc3)OCCO2)CC1 [Example 112, Cyclopropyl-{4-[2-(4-quinolin-7-yl-phenyl)-1,3-dioxolan-2-yl]-piperidin-1-yl}-methanone]
12 | 1 to 10 µM | CCCC(=O)N1CCC(C2(c3ccc(-c4ccc5cccnc5c4)cc3)OCCO2)CC1 [Example 113, 1-{4-[2-(4-Quinolin-7-yl-phenyl)-1,3-dioxolan-2-yl]-piperidin-1-yl}-butan-1-one]
13 | 0.1 to 0.999 µM | CCC(=O)N1CCC(C2(c3ccc(-c4ccc5cccnc5c4)cc3)OCCO2)CC1 [Example 114, 1-{4-[2-(4-Quinolin-7-yl-phenyl)-1,3-dioxolan-2-yl]-piperidin-1-yl}-propan-1-one]
14 | 1 to 10 µM | CC(=O)N1CCC(C2(c3ccc(-c4ccc5ccncc5c4)cc3)OCCO2)CC1 [Example 115, 1-{4-[2-(4-Isoquinolin-7-yl-phenyl)-1,3-dioxolan-2-yl]-piperidin-1-yl}-ethanone]
15 | 1 to 10 µM | CCC(=O)N1CCC(C2(c3ccc(-c4ccc5ccncc5c4)cc3)OCCO2)CC1 [Example 116, 1-{4-[2-(4-Isoquinolin-7-yl-phenyl)-1,3-dioxolan-2-yl]-piperidin-1-yl}-propan-1-one]
16 | 1 to 10 µM | CC(C)C(=O)N1CCC(C2(c3ccc(-c4ccc5ccncc5c4)cc3)OCCO2)CC1 [Example 117, 1-{4-[2-(4-Isoquinolin-7-yl-phenyl)-1,3-dioxolan-2-yl]-piperidin-1-yl}-2-methyl-propan-1-one]
17 | 1 to 10 µM | CC(C)C(=O)N1CCC(C2(c3ccc(-c4ccc5cccnc5c4)cc3)OCCCO2)CC1 [Example 121, 2-Methyl-1-{4-[2-(4-quinolin-7-yl-phenyl)-1,3-dioxinan-2-yl]-piperidin-1-yl}-propan-1-one]
18 | 1 to 10 µM | O=C(C1CC1)N1CCC(C2(c3ccc(-c4ccc5cccnc5c4)cc3)OCCCO2)CC1 [Example 122, Cyclopropyl-{4-[2-(4-quinolin-7-yl-phenyl)-1,3-dioxinan-2-yl]-piperidin-1-yl}-methanone]
19 | 1 to 10 µM | CCC(=O)N1CCC(C2(c3ccc(-c4ccc5cccnc5c4)cc3)OCCCO2)CC1 [Example 123, 1-{4-[2-(4-Quinolin-7-yl-phenyl)-1,3-dioxinan-2-yl]-piperidin-1-yl}-propan-1-one]
20 | 1 to 10 µM | CCC(=O)N1CCC(C(=O)c2ccc(-c3ccc4cccnc4c3)cc2)CC1 [Example 124, 1-[4-(4-Quinolin-7-yl-benzoyl)-piperidin-1-yl]-propan-1-one]
21 | 0.001 to 0.099 µM | CCC(=O)N1CCC(C(O)c2ccc(-c3ccc4cccnc4c3)cc2)CC1 (stereo not drawn) [Example 125, 1-{4-[Hydroxy-(4-quinolin-7-yl-phenyl)-methyl]-piperidin-1-yl}-propan-1-one]
22 | 0.1 to 0.999 µM | CCC(=O)N1CCC(C(C)(O)c2ccc(-c3ccc4cccnc4c3)cc2)CC1 (stereo not drawn) [Example 126, 1-{4-[1-Hydroxy-1-(4-quinolin-7-yl-phenyl)-ethyl]-piperidin-1-yl}-propan-1-one]
23 | 0.001 to 0.099 µM | CCC(=O)N1CCC(C(=O)c2ccc(-c3ccc4cnccc4c3)cc2F)CC1 [Example 127, 1-[4-(2-Fluoro-4-isoquinolin-6-yl-benzoyl)-piperidin-1-yl]-propan-1-one]
24 | 0.001 to 0.099 µM | CCC(=O)N1CCC(C(O)c2ccc(-c3ccc4cnccc4c3)cc2F)CC1 (stereo not drawn) [Example 128, 1-{4-[(2-Fluoro-4-isoquinolin-6-yl-phenyl)-hydroxy-methyl]-piperidin-1-yl}-propan-1-one]
25 | 1 to 10 µM | CCC(=O)N1CCC(C(=O)c2ccc(-c3ccc4cnccc4c3)cc2)CC1 [Example 129, 1-[4-(4-Isoquinolin-6-yl-benzoyl)-piperidin-1-yl]-propan-1-one]
26 | 0.001 to 0.099 µM | CCC(=O)N1CCC(C(O)c2ccc(-c3ccc4cnccc4c3)cc2)CC1 (stereo not drawn) [Example 130, 1-{4-[Hydroxy-(4-isoquinolin-6-yl-phenyl)-methyl]-piperidin-1-yl}-propan-1-one]
27 | 0.1 to 0.999 µM | CCC(=O)N1CCC(C(C)(O)c2ccc(-c3ccc4cnccc4c3)cc2)CC1 (stereo not drawn) [Example 131, 1-{4-[1-Hydroxy-1-(4-isoquinolin-6-yl-phenyl)-ethyl]-piperidin-1-yl}-propan-1-one]
28 | 0.001 to 0.099 µM | CCC(=O)N1CCC(C(C)(O)c2ccc(-c3ccc4cnccc4c3)cc2F)CC1 (stereo not drawn) [Example 132, 1-{4-[1-(2-Fluoro-4-isoquinolin-6-yl-phenyl)-1-hydroxy-ethyl]-piperidin-1-yl}-propan-1-one]
29 | 1 to 10 µM | CCC(=O)N1CCC(C(=O)c2ccc(-c3ccc4cnccc4c3)cc2)C1 (stereo not drawn) [Example 133, 1-[3-(4-Isoquinolin-6-yl-benzoyl)-pyrrolidin-1-yl]-propan-1-one]
30 | 1 to 10 µM | CCC(=O)N1CCC(C(C)(O)c2ccc(-c3ccc4cnccc4c3)cc2)C1 (stereo not drawn) [Example 134, 1-{3-[1-Hydroxy-1-(4-isoquinolin-6-yl-phenyl)-ethyl]-pyrrolidin-1-yl}-propan-1-one]
